Test results taken from ChEMBL document CHEMBL3804813, “Discovery and optimization of new benzofuran derivatives against p53-independent malignant cancer cells through inhibition of HIF-1 pathway” (Bioorg Med Chem Lett, 2016).
Values belong to the compound of their own block, whether it stands above or below them. The source made the active and inactive calls. The rule behind the calls is not given here.

Key:
MCF7 [1] = assay: Antiproliferative activity against human MCF7 cells assessed as growth inhibition after 72 hrs by MTT assay; type: functional, cell-based; details: MCF7, 72 h
[2] = Antiproliferative activity against human HCT116 cells expressing wild type p53 assessed as growth inhibition after 72 hrs by MTT assay; type: functional, cell-based; details: HCT-116, 72 h
MCF7 [3] = assay: Cytotoxicity against human MCF7 cells co-transfected with hypoxia reporter plasmid p(HRE)3-Luc at 20 uM; type: cell-based; details: mcf7, 20 µM
[4] = Antiproliferative activity against human MDA-MB-435S cells assessed as growth inhibition after 72 hrs by MTT assay; type: functional, cell-based
[5] = target: Hypoxia-inducible factor 1-alpha (Homo sapiens) (UniProt Q16665); assay: Inhibition of HIF-1 (unknown origin) expressed in human MCF7 cells co-transfected with hypoxia reporter plasmid p(HRE)3-Luc at 10 uM measured under hypoxia condition after 24 hrs by dual-luciferase reporter assay; type: cell-based
Sequence of Hypoxia-inducible factor 1-alpha (Homo sapiens) (Q16665 whole entry, looked up): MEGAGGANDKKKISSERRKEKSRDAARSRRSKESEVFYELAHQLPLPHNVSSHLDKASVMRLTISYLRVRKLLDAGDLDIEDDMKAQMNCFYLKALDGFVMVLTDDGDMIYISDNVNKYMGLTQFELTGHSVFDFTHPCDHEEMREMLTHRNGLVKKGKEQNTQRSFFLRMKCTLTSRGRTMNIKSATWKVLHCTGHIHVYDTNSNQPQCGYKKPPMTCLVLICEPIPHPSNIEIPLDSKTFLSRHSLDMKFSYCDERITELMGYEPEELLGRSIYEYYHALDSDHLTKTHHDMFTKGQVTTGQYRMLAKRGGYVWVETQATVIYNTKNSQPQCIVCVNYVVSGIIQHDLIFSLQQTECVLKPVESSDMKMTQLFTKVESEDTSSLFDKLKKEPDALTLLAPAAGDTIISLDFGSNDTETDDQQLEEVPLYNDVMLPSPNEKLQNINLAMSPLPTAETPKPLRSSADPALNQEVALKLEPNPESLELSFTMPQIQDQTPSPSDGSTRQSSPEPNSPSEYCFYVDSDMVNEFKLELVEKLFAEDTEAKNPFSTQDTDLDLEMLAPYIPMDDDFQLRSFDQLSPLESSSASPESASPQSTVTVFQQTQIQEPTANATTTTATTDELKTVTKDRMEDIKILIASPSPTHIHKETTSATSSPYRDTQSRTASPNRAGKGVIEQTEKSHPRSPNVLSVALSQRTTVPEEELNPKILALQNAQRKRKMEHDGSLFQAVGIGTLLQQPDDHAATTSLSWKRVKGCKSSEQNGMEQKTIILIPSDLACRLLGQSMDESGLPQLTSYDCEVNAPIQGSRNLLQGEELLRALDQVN

[6] = Antiproliferative activity against human p53-null HCT116 cells assessed as growth inhibition after 72 hrs by MTT assay; type: functional, cell-based; details: HCT-116, 72 h
HCT-116 [7] = assay: Induction of apoptosis in human p53-null HCT116 -/- cells assessed as early apoptotic cells at 5 uM after 48 hrs by Annexin V-FITC/propidium iodide staining based flow cytometry (reference value: 6.96%); type: functional
HCT-116 [8] = assay: Induction of apoptosis in human p53-null HCT116 -/- cells assessed as necrotic cells at 20 uM after 48 hrs by Annexin V-FITC/propidium iodide staining based flow cytometry (reference value: 4.67%); type: functional
HCT-116 [9] = assay: Induction of apoptosis in human p53-null HCT116 -/- cells assessed as late apoptotic cells at 10 uM after 48 hrs by Annexin V-FITC/propidium iodide staining based flow cytometry (reference value: 3.11%); type: functional
HCT-116 [10] = assay: Induction of apoptosis in human p53-null HCT116 -/- cells assessed as viable cells at 10 uM after 48 hrs by Annexin V-FITC/propidium iodide staining based flow cytometry (reference value: 85.26%); type: functional; details: HCT-116, 48 h, read-out: Activity
[11] = Cell cycle arrest in human p53-null HCT116 -/- cells assessed as accumulation at G1-phase after 12 hrs by propidium iodide staining based flow cytometry; type: functional; details: HCT-116
HCT-116 [12] = assay: Induction of apoptosis in human p53-null HCT116 -/- cells assessed as viable cells at 20 uM after 48 hrs by Annexin V-FITC/propidium iodide staining based flow cytometry (reference value: 85.26%); type: functional; details: HCT-116, 48 h, read-out: Activity
[13] = Decrease in procaspase-3 expression level in human p53-null HCT116 -/- cells at 1 to 20 uM after 24 hrs by western blot analysis; type: functional, cell-based; details: HCT-116
HCT-116 [14] = assay: Induction of apoptosis in human p53-null HCT116 -/- cells assessed as early apoptotic cells at 20 uM after 48 hrs by Annexin V-FITC/propidium iodide staining based flow cytometry (reference value: 6.96%); type: functional
[15] = target: Hypoxia-inducible factor 1-alpha (Homo sapiens) (UniProt Q16665); assay: Inhibition of HIF-1 (unknown origin) expressed in human MCF7 cells co-transfected with hypoxia reporter plasmid p(HRE)3-Luc at 20 uM measured under hypoxia condition after 24 hrs by dual-luciferase reporter assay; type: cell-based
HCT-116 [16] = assay: Induction of apoptosis in human p53-null HCT116 -/- cells assessed as necrotic cells at 10 uM after 48 hrs by Annexin V-FITC/propidium iodide staining based flow cytometry (reference value: 4.67%); type: functional
[17] = Cell cycle arrest in human p53-null HCT116 -/- cells assessed as accumulation at S-phase at 5 uM after 12 hrs by propidium iodide staining based flow cytometry (reference value: 69.57%); type: functional; details: HCT-116
HCT-116 [18] = assay: Induction of apoptosis in human p53-null HCT116 -/- cells assessed as late apoptotic cells at 20 uM after 48 hrs by Annexin V-FITC/propidium iodide staining based flow cytometry ( Rvb = 3.11%); type: functional
[19] = target: Hypoxia-inducible factor 1-alpha (Homo sapiens) (UniProt Q16665); assay: Inhibition of HIF1 in human MCF7 cells assessed as reduction in VEGF mRNA expression after 24 hrs under hypoxia condition by real-time PCR analysis; type: cell-based
HCT-116 [20] = assay: Induction of apoptosis in human p53-null HCT116 -/- cells assessed as necrotic cells at 5 uM after 48 hrs by Annexin V-FITC/propidium iodide staining based flow cytometry (reference value: 4.67%); type: functional
[21] = Cell cycle arrest in human p53-null HCT116 -/- cells assessed as accumulation at G2-phase at 10 uM after 12 hrs by propidium iodide staining based flow cytometry (reference value: 2.35%); type: functional; details: HCT-116
[22] = Cell cycle arrest in human p53-null HCT116 -/- cells assessed as accumulation at G1-phase at 10 uM after 12 hrs by propidium iodide staining based flow cytometry (reference value: 27.78%); type: functional; details: HCT-116
HCT-116 [23] = assay: Induction of apoptosis in human p53-null HCT116 -/- cells assessed as early apoptotic cells at 10 uM after 48 hrs by Annexin V-FITC/propidium iodide staining based flow cytometry (reference value: 6.96%); type: functional
HCT-116 [24] = assay: Induction of apoptosis in human p53-null HCT116 -/- cells assessed as viable cells at 5 uM after 48 hrs by Annexin V-FITC/propidium iodide staining based flow cytometry (reference value: 85.26%); type: functional; details: HCT-116, 48 h, read-out: Activity
HCT-116 [25] = assay: Induction of apoptosis in human p53-null HCT116 -/- cells assessed as late apoptotic cells after 48 hrs by Annexin V-FITC/propidium iodide staining based flow cytometry; type: functional, cell-based
[26] = Cell cycle arrest in human p53-null HCT116 -/- cells assessed as accumulation at G1-phase at 20 uM after 12 hrs by propidium iodide staining based flow cytometry (reference value: 27.78%); type: functional; details: HCT-116
[27] = Cell cycle arrest in human p53-null HCT116 -/- cells assessed as accumulation at G1-phase at 5 uM after 12 hrs by propidium iodide staining based flow cytometry (reference value: 27.78%); type: functional; details: HCT-116
[28] = Cell cycle arrest in human p53-null HCT116 -/- cells assessed as accumulation at G2-phase at 5 uM after 12 hrs by propidium iodide staining based flow cytometry (reference value: 2.35%); type: functional; details: HCT-116
HCT-116 [29] = assay: Induction of apoptosis in human p53-null HCT116 -/- cells assessed as early apoptotic cells after 48 hrs by Annexin V-FITC/propidium iodide staining based flow cytometry; type: functional, cell-based
[30] = Cell cycle arrest in human p53-null HCT116 -/- cells assessed as accumulation at S-phase at 10 uM after 12 hrs by propidium iodide staining based flow cytometry (reference value: 69.57%); type: functional; details: HCT-116
HCT-116 [31] = assay: Induction of apoptosis in human p53-null HCT116 -/- cells assessed as morphological change at 5 to 20 uM after 48 hrs by Annexin V-FITC/propidium iodide staining based flow cytometry; type: functional, cell-based
[32] = Decrease in procaspase-9 expression level in human p53-null HCT116 -/- cells at 1 to 20 uM after 24 hrs by western blot analysis; type: functional, cell-based; details: HCT-116
HCT-116 [33] = assay: Induction of apoptosis in human p53-null HCT116 -/- cells assessed as late apoptotic cells at 5 uM after 48 hrs by Annexin V-FITC/propidium iodide staining based flow cytometry (reference value: 3.11%); type: functional
[34] = Cell cycle arrest in human p53-null HCT116 -/- cells assessed as accumulation at G2-phase at 20 uM after 12 hrs by propidium iodide staining based flow cytometry (reference value: 2.35%); type: functional; details: HCT-116
[35] = Cell cycle arrest in human p53-null HCT116 -/- cells assessed as accumulation at S-phase at 20 uM after 12 hrs by propidium iodide staining based flow cytometry (reference value: 69.57%); type: functional; details: HCT-116

IC50 (MCF7 [1]): 5.67 µM | inhibition [5]: 22.2%
SMILES: CNCCNC(=O)c1oc2ccc(N(Cc3ccc(Cl)cc3)S(=O)(=O)c3ccc(Cl)cc3)cc2c1C
IC50 [2]: 1.81 µM | Activity (MCF7 [3]): Toxic | IC50 [4]: 1.63 µM | IC50 [6]: 4.03 µM

IC50 (MCF7 [1]): 4.56 µM | inhibition [15]: 47.3% | inhibition [19]: Dose-dependent effect
SMILES: CNCCNC(=O)c1oc2ccc(N(Cc3ccccc3)S(=O)(=O)c3ccc(Cl)cc3)cc2c1C
Activity (HCT-116 [7]): 15.42% | Activity (HCT-116 [8]): 0.02% | Activity (HCT-116 [9]): 14.99% | IC50 [2]: 3 µM | viability at 10 µM (HCT-116 [10]): 28.1% | Activity [11]: Dose-dependent effect | viability at 20 µM (HCT-116 [12]): 3.07% | inhibition [13]: Active | Activity (HCT-116 [14]): 62.28% | Activity (HCT-116 [16]): 1.05% | Activity [17]: 60.2% | Activity (HCT-116 [18]): 34.63% | Activity (HCT-116 [20]): 0.5% | Activity [21]: 4.26% | Activity [22]: 52.8% | IC50 [4]: 4.71 µM | Activity (HCT-116 [23]): 55.86% | viability at 5 µM (HCT-116 [24]): 77.3% | Activity (HCT-116 [25]): Dose-dependent effect | Activity [26]: 59.7% | Activity [27]: 36.2% | Activity [28]: 3.6% | Activity (HCT-116 [29]): Dose-dependent effect | Activity [30]: 42.9% | Activity (HCT-116 [31]): Active | IC50 [6]: 2.91 µM | inhibition [32]: Active | Activity (HCT-116 [33]): 6.74% | Activity [34]: 8.1% | Activity [35]: 32.2%
